# Test results as given in paper doi:10.1101/322404v1, “Discovery of a novel stereospecific β-hydroxyacyl-CoA lyase/thioesterase shared by three metabolic pathways in Mycobacterium tuberculosis” (biorxiv, 2018).
# Experiments:
# Rv2498c [1] = molecular target: T1, Rv2498c (Mycobacterium tuberculosis, UniProt P9WPE1)
# T1 construct: gene citE
# Rv2498c [2] = molecular target: T1, Rv2498c; remark: listed apart in the source
# Rv2498c [3] = molecular target: T1, Rv2498c; remark: listed apart in the source
# Rv2498c [4] = molecular target: T1, Rv2498c; remark: listed apart in the source
# T1 sequence (P9WPE1 whole entry): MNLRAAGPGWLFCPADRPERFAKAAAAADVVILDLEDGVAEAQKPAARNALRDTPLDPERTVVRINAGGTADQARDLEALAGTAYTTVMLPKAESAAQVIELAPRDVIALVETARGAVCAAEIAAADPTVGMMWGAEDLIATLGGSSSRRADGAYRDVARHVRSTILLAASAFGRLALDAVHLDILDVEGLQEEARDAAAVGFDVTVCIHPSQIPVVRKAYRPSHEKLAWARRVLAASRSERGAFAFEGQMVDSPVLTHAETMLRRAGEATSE
smiles,measurement,setting,value
CC(C)(COP(=O)(O)OP(=O)(O)OC[C@H]1O[C@@H](n2cnc3c(N)ncnc32)[C@H](O)[C@@H]1OP(=O)(O)O)[C@@H](O)C(=O)NCCC(=O)NCCSC(=O)C[C@H](O)C(=O)O [(S)-malyl-CoA],HPLC thioesterase assay,Rv2498c [1],Rv2498c was found to subsequently catalyse the hydrolysis of the thioester bond of (S)-malyl-CoA
CC(C)(COP(=O)(O)OP(=O)(O)OC[C@H]1O[C@@H](n2cnc3c(N)ncnc32)[C@H](O)[C@@H]1OP(=O)(O)O)[C@@H](O)C(=O)NCCC(=O)NCCS [CoA],"X-ray crystal structure, 1.72 A (6ARB) and 2.04 A (6AS5)",Rv2498c [2],"A magnesium ion, coordinated pyruvate, and CoA molecule were observed in the active sites"
CC(C)(COP(=O)(O)OP(=O)(O)OC[C@H]1O[C@@H](n2cnc3c(N)ncnc32)[C@H](O)[C@@H]1OP(=O)(O)O)[C@@H](O)C(=O)NCCC(=O)NCCSC(=O)C[C@](C)(O)CC(=O)O [(R)-HMG-CoA],HPLC lyase assay and 1H NMR of products,Rv2498c [3],we found that Rv2498c is a lyase specific for the (R)-HMG-CoA
CC(C)(COP(=O)(O)OP(=O)(O)OC[C@H]1O[C@@H](n2cnc3c(N)ncnc32)[C@H](O)[C@@H]1OP(=O)(O)O)[C@@H](O)C(=O)NCCC(=O)NCCSC(=O)C[C@](C)(O)C(=O)O [(S)-citramalyl-CoA],"X-ray crystal structure, 1.83 A",Rv2498c [4],two citramalyl-CoA molecules
